Laboratory results published in patent US5242945A, “Tetronic and thiotetronic acid derivatives as phospholipase A2 inhibitors” (American Home Products Corporation, priority 1991, dated 1993).
Read-outs that look alike come from different tables or passages of the source.

How the values were obtained:
[1] = molecular target: T1, human synovial fluid PLA2 (Homo sapiens, UniProt P14555); experiment: in vitro isolated phospholipase A2 assay, human synovial fluid PLA2; type: biochemical; settings: for IC50: Table IV, read-out: IC50 HSF (human synovial fluid); for inhibition at 10 µM: + values given without explanation, read-out: % Inhibition HSF (human synovial fluid)
T1 construct: Purified human synovial fluid; from tissue; host or cells: human synovial fluid
T1 sequence (P14555 21-144): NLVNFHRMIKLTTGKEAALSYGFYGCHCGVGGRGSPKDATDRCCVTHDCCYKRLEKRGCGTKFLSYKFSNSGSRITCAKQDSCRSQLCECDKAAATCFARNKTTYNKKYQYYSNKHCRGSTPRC
How it was run: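 PLA2 from semipurified human platelet acid extract or purified human synovial fluid, preincubated 30 min at room temperature with compound. ³H-arachidonate-labelled E. coli substrate then added in Tris-HCl pH 7.5, with enzyme giving about 12% hydrolysis. Reaction ran 10 min at 37° C; released arachidonic acid recovered on NH2 columns and measured by β-counting.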

5-lipoxygenase (LTC4) = experiment: resident murine peritoneal macrophage assay, LTC4; type: cell-based, mouse (Swiss Webster); settings: for LTC4 AA % Inhibition: arachidonic acid stimulation; for IC50: read-out: LTC4 zymosan IC50
Description: (§1) The ability of the compounds of the invention to act as inhibitors of the enzymes 5-lipoxygenase and cyclooxygenase is measured in the resident murine peritoneal macrophage assay.
(§2) Resident peritoneal macrophages are collected from female Swiss Webster mice (49 days old, 20-25 gms, Buckshire) by lavaging with 7-8 ml Hanks Balanced Salt Solution (HBSS) without Ca^++ and Mg^++ (GIBCO). The lavage fluid from several mice is pooled and centrifuged at 4° C. for 10 minutes at 400 xg.
(§3) Residual serum and cellular debris are removed from the monolayers by washing 3× with 2 ml HBSS containing Ca^++ and Mg^++. Macrophages are preincubated for 5 minutes with 1 ml serum-free M199 containing 10 μl dimethyl sulfoxide (DMSO) vehicle or test compound prior to cell activation with zymosan ([…]) or arachidonic acid (AA) (2 μM). After 2 hours, the supernatants are removed and either assayed for LTC4 and PGE2 by radioimmunoassay (RIA) directly or stored at -20° C. In all cases, results are expressed as ng metabolite/4×10^6 cells.
(§4) Raw data (dpm) may be stored directly onto an "Autostart" tape using the HP85 in room C-096. The raw data are converted to ng metabolite/4-10^6cells using the standard curve by a "RIANAL" program (HP85) or a "NONLIN" program (HP9816). Results are then expressed as percent inhibition of zymosan induced, leukotriene or prostaglandin synthesis (control) using the equation: [formula]

cyclooxygenase (PGE2) = experiment: resident murine peritoneal macrophage assay, PGE2; type: cell-based, mouse (Swiss Webster); settings: Mus musculus, Peritoneal macrophage; for IC50: read-out: PGE2 zymosan IC50
Description: as §1
as §2, with “xg. The cell pellet is resuspended in Medium 199 (GIBCO) with HEPES buffer containing 100 μg/ml gentamicin. Two ml of the cell suspension (4×10^6 cells) are then plated on 35 mm culture dishes (Nunc).” for “xg.”
A macrophage monolayer is established after a 1-1.5 hour incubation of the cells at 37° C. in an atmosphere of […] and 5% CO2. The monolayers are washed 2× with 2 ml HBDSS, containing Ca^++ and Mg^++ after which 2 ml Medium 199 supplemented with 10% freshly thawed heat-inactivated fetal bovine serum and 100 μg/ml gentamicin is added for an overnight incubation.
as §3, §4

[2] = Mus musculus, Peritoneal macrophage, zymosan stimulation
[3] = arachidonic acid stimulation, read-out: PGE2 AA % Inhibition
[4] = zymosan stimulation, read-out: PGE2 zymosan % Inhibition

inhibition at 10 µM [1] [%] | IC50 (cyclooxygenase (PGE2); zymosan stimulation) [nM] | IC50 (5-lipoxygenase (LTC4); [2]) [nM] | SMILES | IC50 [1] [nM] | inhibition at 0.1 µM (cyclooxygenase (PGE2); zymosan stimulation) [%] | other results
95 | 4000 |  | CCCCC/C=C\C/C=C\CCCCCCCC(=O)C1=C(O)COC1=O [Example 14, (Z,Z)-4-Hydroxy-3-(1-oxo-9,12-octadecadienyl)-2(5H)-furanone] | 480 |  | LTC4 AA % Inhibition (5-lipoxygenase (LTC4); dose 5 (unit not given)): 61%; inhibition at 5 µM (cyclooxygenase (PGE2); arachidonic acid stimulation, 5 μM, read-out: PGE2 AA % Inhibition): 38%
9 | 140 | 160 | CCCCCCCCCCC/C=C\CCCCC(=O)C1=C(O)COC1=O [Example 18, (Z)-4-Hydroxy-3-(1-oxo-6-octadecenyl)-2(5H)-furanone] |  |  | LTC4 AA % Inhibition (5-lipoxygenase (LTC4); dose 0.3 (unit not given)): -6%; inhibition at 0.3 µM (cyclooxygenase (PGE2); [3]): -17%
77.5 | 350 | 450 | CC/C=C\C/C=C\C/C=C\CCCCCCCC(=O)C1=C(O)COC1=O [Example 15, (Z,Z,Z)-4-Hydroxy-3-(1-oxo-9,12,15-octadecatrienyl)-2(5H)-furanone] |  |  | 
55.9 |  |  | CCCCC/C=C\C/C=C\C/C=C\CCCCC(=O)C1=C(O)CSC1=O [Example 50, 4-Hydroxy-3-[(Z,Z,Z)-1-oxo-6,9,12-octadecatrienyl]-2(5H)-thiophenone] |  | 21.6 | inhibition at 0.1 µM (5-lipoxygenase (LTC4); [2]): 38.8%; inhibition at 0.5 µM (5-lipoxygenase (LTC4); [2]): 48.1%; LTC4 AA % Inhibition (5-lipoxygenase (LTC4); dose 0.5 (unit not given)): -33%; inhibition at 0.5 µM (cyclooxygenase (PGE2); [3]): -35%; inhibition at 0.5 µM (cyclooxygenase (PGE2); [4]): 70.1%
28.4 | 150 | 300 | O=C(CCCCCCC/C=C\c1ccc(Cl)cc1)C1=C(O)COC1=O [Example 35, 3-[(Z)-10-(4-chlorophenyl)-1-oxo-9-decenyl]-4-hydroxy-2(5H)-furanone] | 16000 |  | 
50.9 |  |  | CCCC/C=C\CCCCCCCC(=O)C1=C(O)CSC1=O [Example 48, 4-Hydroxy-3-[(Z)-1-oxo-9-tetra-decenyl]-2(5H)-thiophenone] |  | 71.8 | inhibition at 0.1 µM (5-lipoxygenase (LTC4); [2]): 25.3%; inhibition at 1 µM (5-lipoxygenase (LTC4); Mus musculus, Peritoneal macrophage, zymosan stimulation, 1.0 μM): 77.1%; LTC4 AA % Inhibition (5-lipoxygenase (LTC4); dose 0.3 (unit not given)): -5%; inhibition at 0.3 µM (cyclooxygenase (PGE2); [3]): -16%; inhibition at 0.03 µM (cyclooxygenase (PGE2); zymosan stimulation, 0.03 μM): 25.4%
29.4 |  |  | CCCCCCCCCCC/C=C\CCCCC(=O)C1=C(O)CSC1=O [Example 51, 4-Hydroxy-3-[(Z)-1-oxo-6-octadecenyl]-2(5H)-thiophenone] |  | 0.5 | inhibition at 0.1 µM (5-lipoxygenase (LTC4); [2]): 21.1%; inhibition at 0.5 µM (5-lipoxygenase (LTC4); [2]): 59.4%; LTC4 AA % Inhibition (5-lipoxygenase (LTC4); dose 0.5 (unit not given)): -4%; inhibition at 0.5 µM (cyclooxygenase (PGE2); [4]): 91.3%
81 | 700 | 700 | CCCCC/C=C\C/C=C\C/C=C\CCCCC(=O)C1=C(O)COC1=O [Example 20, (Z,Z,Z)-4-Hydroxy-3-(1-oxo-6,9,12-octadecatrienyl)-2(5H)-furanone] |  |  | LTC4 AA % Inhibition (5-lipoxygenase (LTC4); dose 1.0 (unit not given)): -51%; inhibition at 1 µM (cyclooxygenase (PGE2); arachidonic acid stimulation, 1.0 μM, read-out: PGE2 AA % Inhibition): 1%
34.8 | 100 | 100 | CCCCCCCC/C=C\CCCCCCCC(=O)C1=C(O)CSC1=O [Example 47, 4-Hydroxy-3-[(Z)-1-oxo-9-octadecenyl]-2(5H)-thiophenone] |  | 48.4 | inhibition at 0.1 µM (5-lipoxygenase (LTC4); [2]): 46.2%; LTC4 AA % Inhibition (5-lipoxygenase (LTC4); dose 0.3 (unit not given)): 9%; inhibition at 0.3 µM (cyclooxygenase (PGE2); [3]): -26%
72 | 100 | 300 | CCCCC/C=C\C/C=C\CCCCCCCC(=O)C1=C(O)CSC1=O [Example 46, 4-Hydroxy-3[(Z,Z)-1-oxo-9,12-octadecadienyl]-2(5H)-thiophenone] |  | 51.9 | LTC4 AA % Inhibition (5-lipoxygenase (LTC4); dose 0.5 (unit not given)): -9%; inhibition at 0.5 µM (cyclooxygenase (PGE2); [3]): 5%
89.8 | 200 | 200 | CCCCCC1CC1CC1CC1CCCCCCCC(=O)C1=C(O)COC1=O (centres unmarked) [Example 22, 4-Hydroxy-3-[1-oxo-8-[2-[(2-pentylcyclopropyl)methyl]cyclopropyl]octyl]-2(5H)-furanone] | 2500 |  | 

SMILES | inhibition at 10 µM [1] [%] | IC50 (cyclooxygenase (PGE2); zymosan stimulation) [nM] | IC50 (5-lipoxygenase (LTC4); [2]) [nM] | IC50 [1] [nM] | inhibition at 0.1 µM (cyclooxygenase (PGE2); zymosan stimulation) [%] | other results
CCCC/C=C\CCCCCCCC(=O)C1=C(O)COC1=O [Example 25, 4-Hydroxy-3-((Z)-1-oxo-9-tetradecenyl)-2(5H)-furanone] | 28.8 | 200 | 250 | 33400 |  | LTC4 AA % Inhibition (5-lipoxygenase (LTC4); dose 0.6 (unit not given)): -4%
CCCCCCCC/C=C\CCCCCCCC(=O)C1=C(O)COC1=O [Example 9, (Z)-4-Hydroxy-3-(1-oxo-9-octadecenyl)-2(5H)-furanone] | 97.3 | 200 | 200 | 1100 |  | LTC4 AA % Inhibition (5-lipoxygenase (LTC4); dose 0.3 (unit not given)): 8%; inhibition at 0.3 µM (cyclooxygenase (PGE2); [3]): 4%
CCCCCCCCCC(=O)C1=C(O)COC1=O [Example 1, 4-Hydroxy-3-(1-oxodecyl)-2(5H)-furanone] | 35.1 | 3000 | 2000 | 10800 |  | 
